According to paper PMC6534241 (Drug Delivery, 2019):

Tests used:
[1] = Solubility of drugs in oils/excipients; type: physicochemical; settings: shake flask, 25 °C, 48 h, HPLC, n = 3; Figure S1
[2] = ref Hu et al., 2012; cited from earlier work

SMILES: CC(=O)O[C@@]12CO[C@@H]1C[C@H](O)[C@@]1(C)C(=O)[C@H](O)C3=C(C)[C@@H](OC(=O)[C@H](O)[C@@H](NC(=O)OC(C)(C)C)c4ccccc4)C[C@@](O)([C@@H](OC(=O)c4ccccc4)[C@H]21)C3(C)C [DTX, Docetaxel]
- Solubility among the oils employed (ranking) [1]: highest solubility of 131.62 ± 17.68 in Capryol 90
- oral bioavailability of DTX [2]: ~5%
